Our source for the IC50 values is US12037345B2, “Heterobicyclic compounds for inhibiting the activity of SHP2” (TAIHO PHARMACEUTICAL CO., LTD., priority 2018, dated 2024).

Test [1] has as its system pERK (phospho-p44/42 MAPK Thr202/Tyr204) in HCC827 cells. The test can be described thus: Cellular pERK Inhibition Assay, Method B (PathScan phospho-p44/42 MAPK sandwich ELISA). The test is classed as cell-based. The note with it: Homo sapiens. The procedure: Cellular pERK Inhibition Assay
HCC827 cells (ATCC, Manassas, USA) were seeded into 96-well plates at a density of 1×10^5 cells/well in RPMI medium supplemented with 10% FBS and incubated 24h. Compounds were diluted first in DMSO and then into serum-free medium, before being added to cells in triplicate to give a final concentration of 0.1% DMSO. Plates were incubated at 37° C. for the indicated time in a humidified atmosphere of 5% CO2 in air.
Following compound treatment, medium was removed and cells were lysed by adding 50 μL of lysis buffer (Cell Signalling Technology, Beverly, USA) to each well. Plates were then incubated at room temperature for 25 minutes with shaking. pERK levels were measured in lysates using the PathScan(Registered Trademark) phospho-p44/42 MAPK (Thr202/Tyr204) sandwich ELISA (Cell Signalling Technology, Beverly, USA) as per kit instructions. Briefly, 50 μL of cell lysate was added to 50 μL of ELISA sample diluent in a 96-well ELISA plate and incubated overnight at 4° C. Following washing, 100 μL of detection antibody was added per well and the plates incubated for 1 hour at 37° C. Plates were washed again and incubated at 37° C. for 30 minutes with 100 μl of HRP-linked secondary antibody per well. After final washing, 100 μL per well of TMB substrate was added and plates incubated at 37° C. to develop colour. Colour development was stopped by the addition of 100 μL per well of stop solution. Plates were read at 450 nm on a SpectraMax Gemini reader (Molecular Devices, Uckfield, UK).
The average signal from blank wells (no cells added) was subtracted from the signals from each sample well. Levels of pERK were then expressed as “percent of control”, using DMSO treated samples as control. Dose response curves were generated using GraphPad Prism Version 6 (GraphPad Software, La Jolla, USA) and fitted using the four parameter logistic curve fit.
(An ELISA detects its analyte on a solid surface through an enzyme-linked reagent.)

The target of test [2] is SHP2 (Homo sapiens (Human), UniProt Q06124). The test can be described thus: SHP2 Biochemical Assay (DiFMUP conversion, pIRS1-activated). The method, boiled down:
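Human SHP2 (10 pM) pre-incubated 30 min with compound and […] pIRS1 activating peptide, then 50 μM DiFMUP added; buffer 25 mM Bis-Tris propane pH 7.0, 150 mM NaCl, 5% DMSO. Fluorescence rate (ex 360/em 450 nm) over 30 min; IC50 by four-parameter fit, averaged across experiments.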

Setting [3] is: Table 19, head prints unit as "-M", read-out: pERK (IC50) Method B.
Where [4] appears, read: Table 19, head prints unit as "-M".
Setting [5] is: Table 20, read-out: pERK (IC50, μM) Method B.

Each structure is given as a SMILES string. Where a name gives a salt, the structure may show the parent alone. Read-outs that look alike come from different tables or passages of the source.

SHP2, sequence (Q06124 whole entry): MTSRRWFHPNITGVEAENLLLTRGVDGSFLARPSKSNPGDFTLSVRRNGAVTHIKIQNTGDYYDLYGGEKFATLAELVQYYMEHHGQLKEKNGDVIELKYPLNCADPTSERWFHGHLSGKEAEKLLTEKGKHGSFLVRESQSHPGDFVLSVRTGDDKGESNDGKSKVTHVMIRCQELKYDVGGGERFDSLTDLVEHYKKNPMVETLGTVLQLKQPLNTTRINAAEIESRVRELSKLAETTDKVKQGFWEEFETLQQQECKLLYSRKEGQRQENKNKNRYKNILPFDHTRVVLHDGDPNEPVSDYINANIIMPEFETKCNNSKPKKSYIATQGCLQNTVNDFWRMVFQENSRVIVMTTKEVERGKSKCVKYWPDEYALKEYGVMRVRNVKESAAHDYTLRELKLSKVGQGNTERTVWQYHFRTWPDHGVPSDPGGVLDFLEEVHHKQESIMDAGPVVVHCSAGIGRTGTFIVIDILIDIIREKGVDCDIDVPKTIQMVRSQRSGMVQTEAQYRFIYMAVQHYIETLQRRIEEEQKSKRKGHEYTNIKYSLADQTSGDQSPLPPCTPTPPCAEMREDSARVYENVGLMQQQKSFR

Usually IC50 stands for the midpoint of a concentration-inhibition curve. For `CCn1cc2c(Cl)c(-c3n[nH]c4nc(N5CCC6(CC5)CO[C@@H](C)[C@H]6N)n(C)c(=O)c34)ccc2n1` [Example 148, 6-[(3S,4S)-4-amino-3-methyl-2-oxa-8-azaspiro[4.5]decan-8-yl]-3-(4-chloro-2-ethyl-2H-indazol-5-yl)-5-methyl-1H,4H,5H-pyrazolo[3,4-d]pyrimidin-4-one hydrochloride salt], the IC50 in test [1] (setting [3]) was 0.025 µM; in test [2] (setting [4]), 24 nM.

With `CCn1cc2ccc(-c3c[nH]c4nc(N5CCC6(CC5)COC[C@H]6N)n(C)c(=O)c34)c(F)c2n1` [Example 184, 2-[(4S)-4-amino-2-oxa-8-azaspiro[4.5]decan-8-yl]-5-(2-ethyl-7-fluoro-2H-indazol-6-yl)-3-methyl-3H,4H,7H-pyrrolo[2,3-d]pyrimidin-4-one hydrochloride], the IC50 in test [1] (setting [5]) amounted to 1.1 µM; in test [2] (Table 20) it was 70 nM.

As for `C[C@@H]1OCC2(CCN(c3nc4[nH]cc(-c5cc(F)c6nn(C)cc6c5Cl)c4c(=O)n3C)CC2)[C@@H]1N` [Example 194, 2-[(3S,4S)-4-amino-3-methyl-2-oxa-8-azaspiro[4.5]decan-8-yl]-5-(4-chloro-7-fluoro-2-methyl-2H-indazol-5-yl)-3-methyl-3H,4H,7H-pyrrolo[2,3-d]pyrimidin-4-one hydrochloride], the IC50 was 0.043 µM in test [1] (setting [5]) and 16 nM in test [2] (Table 20).

For the compound `CCn1cc2c(F)c(-c3c[nH]c4nc(N5CCC6(CC5)COC[C@H]6N)n(C)c(=O)c34)ccc2n1` [Example 181, 2-[(4S)-4-amino-2-oxa-8-azaspiro[4.5]decan-8-yl]-5-(2-ethyl-4-fluoro-2H-indazol-5-yl)-3-methyl-3H,4H,7H-pyrrolo[2,3-d]pyrimidin-4-one hydrochloride], the IC50 was 0.21 µM in test [1] (setting [5]) and 23 nM in test [2] (Table 20).

Take `CCn1cc2c(Cl)c(-c3c[nH]c4nc(N5CCCNCC5)n(C)c(=O)c34)ccc2n1` [Example 151, 5-(4-chloro-2-ethyl-2H-indazol-5-yl)-2-(1,4-diazepan-1-yl)-3-methyl-3H,4H,7H-pyrrolo[2,3-d]pyrimidin-4-one hydrochloride]: the values for the IC50 in test [1] (setting [3]) and in test [2] (setting [4]) were 0.52 µM and 23 nM, respectively.

Regarding `Cn1cc2c(Cl)c(-c3c[nH]c4nc(N5[C@H]6CCNC[C@@H]5CC6)n(C)c(=O)c34)ccc2n1` [Example 188, 5-(4-chloro-2-methyl-2H-indazol-5-yl)-2-[(1S,6R)-3,9-diazabicyclo[4.2.1]nonan-9-yl]-3-methyl-3H,4H,7H-pyrrolo[2,3-d]pyrimidin-4-one hydrochloride], the half-inhibitory concentration (IC50) amounted to 0.56 µM in test [1] (setting [5]) and 41 nM in test [2] (Table 20).

`Cn1cc2c(Cl)c(-c3c[nH]c4nc(N5[C@@H]6CCNC[C@H]5CC6)n(C)c(=O)c34)ccc2n1` [Example 189, 5-(4-chloro-2-methyl-2H-indazol-5-yl)-2-[(1R,6S)-3,9-diazabicyclo[4.2.1]nonan-9-yl]-3-methyl-3H,4H,7H-pyrrolo[2,3-d]pyrimidin-4-one hydrochloride]: the IC50 in test [1] (setting [5]) was found to be 0.23 µM; in test [2] (Table 20), 19 nM.
